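48-hour exposure; five concentrations; linearly interpolated endpoints. TGI: total growth inhibition.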
What was measured:
Experiment in all cases: DTP human tumour cell line panel, 48 h
M14 melanoma = system: M14 melanoma
KM20L2 colon = system: KM20L2 colon
HOP-18 NSCLC = system: HOP-18 NSCLC
RXF-631 renal = system: RXF-631 renal
DMS 273 small cell lung = system: DMS 273 small cell lung
NCI-H226 lung = system: NCI-H226 lung
DLD-1 colon = system: DLD-1 colon
A549 NSCLC = system: A549 NSCLC
M19-MEL melanoma = system: M19-MEL melanoma
LXFL 529 NSCLC = system: LXFL 529 NSCLC
HCT-15 colon = system: HCT-15 colon
XF 498 CNS = system: XF 498 CNS
DMS 114 small cell lung = system: DMS 114 small cell lung
ACHN renal = system: ACHN renal
IGROV1 ovarian = system: IGROV1 ovarian
CAKI-1 renal = system: CAKI-1 renal
SNB-78 CNS = system: SNB-78 CNS

| SMILES | TGI (M14 melanoma) | TGI (KM20L2 colon) | TGI (HOP-18 NSCLC) | TGI (RXF-631 renal) | TGI (DMS 273 small cell lung) | TGI (NCI-H226 lung) | TGI (DLD-1 colon) | TGI (A549 NSCLC) | TGI (M19-MEL melanoma) | TGI (LXFL 529 NSCLC) | TGI (HCT-15 colon) | TGI (XF 498 CNS) | TGI (DMS 114 small cell lung) | TGI (ACHN renal) | TGI (IGROV1 ovarian) | TGI (CAKI-1 renal) | TGI (SNB-78 CNS) |
| --- | --- | --- | --- | --- | --- | --- | --- | --- | --- | --- | --- | --- | --- | --- | --- | --- | --- |
| CC1=CP(=O)(OC(C)C)C=C(C)C1=C(Cl)Cl (configuration not stated) | > 100 µM | > 100 µM | > 100 µM | > 100 µM | > 100 µM | 87.2 µM | > 100 µM | 97.8 µM | > 100 µM | > 100 µM | > 100 µM | > 100 µM | > 100 µM | > 100 µM | > 100 µM | – | – |
| Nc1nc(N)c(N=Nc2ccccc2)c(=O)[nH]1 | > 100 µM | > 100 µM | > 100 µM | – | > 100 µM | > 100 µM | > 100 µM | > 100 µM | > 100 µM | – | > 100 µM | > 100 µM | 71.2 µM | 96.7 µM | > 100 µM | > 100 µM | 71.4 µM |
| CC(=O)c1ccc(NC(=O)C(=O)CC(=O)c2sc(-n3nc(-c4ccccc4)cc3-c3ccccc3)nc2C)cc1 | > 100 µM | > 100 µM | – | > 100 µM | > 100 µM | > 100 µM | > 100 µM | > 100 µM | > 100 µM | > 100 µM | > 100 µM | – | > 100 µM | > 100 µM | > 100 µM | > 100 µM | > 100 µM |
| C=C(CN(C)C)C(=O)c1ccccc1 | 7.54 µM | 39.8 µM | 14.8 µM | 48.5 µM | 39.2 µM | 36 µM | 11.5 µM | 53 µM | 22.9 µM | 5.64 µM | 28 µM | 29.9 µM | 11.1 µM | 7.32 µM | 36.3 µM | 16.8 µM | 62.6 µM |
| O=C(N[C@H](CO)[C@H](O)c1ccc([N+](=O)[O-])cc1)C(Cl)Cl | > 100 µM | > 100 µM | – | – | > 100 µM | > 100 µM | > 100 µM | > 100 µM | > 100 µM | > 100 µM | > 100 µM | – | > 100 µM | > 100 µM | > 100 µM | > 100 µM | – |
| Cc1c(N)c(C#N)c2n(C)c3ncccc3n2c1=O | > 100 µM | > 100 µM | > 100 µM | – | > 100 µM | > 100 µM | > 100 µM | > 100 µM | > 100 µM | > 100 µM | > 100 µM | > 100 µM | – | > 100 µM | – | > 100 µM | > 100 µM |
| CCN(CC)CC(C(C)=O)C(c1ccccc1)c1c(O)c2ccccc2oc1=O (configuration not stated) | > 100 µM | > 100 µM | > 100 µM | – | > 100 µM | > 100 µM | > 100 µM | > 100 µM | > 100 µM | > 100 µM | > 100 µM | > 100 µM | > 100 µM | > 100 µM | > 100 µM | > 100 µM | > 100 µM |
| CCc1n[nH]c(=O)n1-n1c(C)ccc1C | > 100 µM | – | – | – | – | > 100 µM | – | > 100 µM | – | – | > 100 µM | – | – | > 100 µM | > 100 µM | > 100 µM | – |
| NC(=S)NN=Cc1ccccc1OCc1cccc(COc2ccccc2C=NNC(N)=S)n1 | > 100 µM | – | – | – | – | > 89.6 µM | – | > 100 µM | – | – | > 100 µM | – | – | > 100 µM | 31.6 µM | > 100 µM | – |
| CC12CCC(=O)N1[C@@H](c1ccccc1)[C@@H](c1ccccc1)O2 (some centres not stated) | > 100 µM | > 100 µM | – | – | – | > 100 µM | > 100 µM | > 100 µM | > 100 µM | > 100 µM | > 100 µM | > 100 µM | > 100 µM | > 100 µM | > 100 µM | > 100 µM | – |
| O=[N+]([O-])c1ccccc1S(=O)(=O)c1cccc2c1NCCC2 | > 100 µM | – | – | – | – | > 100 µM | – | > 100 µM | – | – | > 100 µM | – | – | > 100 µM | > 100 µM | > 100 µM | – |
| Cc1cc2c(cc1Cl)SC(NNC(=O)c1ccccc1)=NS2(=O)=O | > 10 µM | – | – | – | – | > 10 µM | – | > 10 µM | – | – | > 10 µM | – | – | > 10 µM | > 10 µM | > 10 µM | – |
| COC(=O)C1=C(N)C2=C(N)Oc3ccccc3C2CC1=C(C#N)C#N (configuration not stated) | 43.3 µM | – | – | – | – | > 100 µM | – | > 100 µM | – | – | 36.8 µM | – | – | 72.8 µM | 48.4 µM | 72.2 µM | – |
| CN1CCOC1(C)c1ccccc1 (configuration not stated) | > 100 µM | – | – | – | – | > 100 µM | – | > 100 µM | – | – | > 100 µM | – | – | > 100 µM | > 100 µM | > 100 µM | – |
| c1ccc(CN2C3C4N(Cc5ccccc5)C2C2N(Cc5ccccc5)C(C(N2Cc2ccccc2)N4Cc2ccccc2)N3Cc2ccccc2)cc1 | > 100 µM | – | – | – | – | > 100 µM | – | > 100 µM | – | – | > 100 µM | – | – | > 100 µM | > 100 µM | > 100 µM | – |
| C=C(Cl)[C@](Cl)(CBr)CC[C@@H](Br)C(C)(C)Cl | 30.7 µM | – | – | – | – | 32.8 µM | – | 5.49 µM | – | – | 4.64 µM | – | – | 2.31 µM | 21.2 µM | 0.751 µM | – |
| Cc1cc(N(C)c2ccccc2)nc(N(C)c2ccccc2)n1 | > 100 µM | – | – | – | – | 96 µM | – | > 100 µM | – | – | > 100 µM | – | – | 95.7 µM | > 100 µM | > 100 µM | – |
| CC(=O)OC1CCn2c1nc1c2C(=O)C=C(N2CC2)C1=O (configuration not stated) | 0.186 µM | – | – | – | – | 6 µM | – | 6.25 µM | – | – | 1.96 µM | – | – | 0.173 µM | 1.88 µM | 0.124 µM | – |
| CC(=O)Nc1ccc2cc(C#N)c(=O)[nH]c2n1 | > 100 µM | – | – | – | – | > 100 µM | – | > 100 µM | – | – | > 100 µM | – | – | > 100 µM | > 100 µM | > 100 µM | – |
| S=c1[nH]nc(COc2ccc(Cl)cc2)n1-c1ccccc1 | > 100 µM | – | – | – | – | > 100 µM | – | > 100 µM | – | – | > 100 µM | – | – | > 100 µM | > 100 µM | 65.8 µM | – |
| [N-]=[N+]=NC1(Cc2ccccc2)C(=O)Nc2ccccc2C1=O (configuration not stated) | > 100 µM | > 100 µM | > 100 µM | – | > 100 µM | – | > 100 µM | > 100 µM | > 100 µM | > 100 µM | > 100 µM | > 100 µM | > 100 µM | > 100 µM | > 100 µM | > 100 µM | > 100 µM |
